For twelve molecules, pest or weed control and death rate results are on record in patent US8686044B2, “Amide derivative, pest control agent containing the amide derivative, and use of the amide derivative” (Mitsui Chemicals Agro, Inc., priority 2008, dated 2014).

Where only a bound is given, the exact number is not on record here.

Common to all, as to assay type: in vivo
One experiment relates to Coptotermes formosanus. As to the kind of experiment: Pesticidal test against Coptotermes formosanus (treated filter paper). The conditions noted are these: 120 h, concentration 30 ppm, examined after 5 days of treatment, 28° C., read-out: pesticidal rate. On the procedure: Pesticidal Test against Coptotermes formosanus
20 μl of an acetone solution in which a test compound had been prepared at a predetermined concentration was added dropwise to the filter paper having a diameter of […] included in a polypropylene cup, and air-dried, and then 20 μl of water was added thereto. Coptotermes formosanus was released and the cup was capped. They were left to stand in a thermostatic chamber at 28° C., and the numbers of the living pests and the dead pests were examined after 5 days of treatment. The test was carried out with ten larvae per group in two replicates.

For the next experiment, the system named is Plutella xylostella. The experiment is described as follows: Pesticidal test against Plutella xylostella (cabbage leaf dip). To be noted: foliar, 144 h, concentration 1 ppm, 2-stage larvae, examined after 6 days, 25° C., read-out: pesticidal rate. Summed up: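 Cabbage leaf pieces dipped 30 s in test solution at a predetermined concentration, air-dried, then offered to 2nd-instar larvae, five per group in duplicate. Held at 25° C; living and dead larvae counted after 6 days.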

For a further experiment, the system named is Laodelphax striatellus. The experiment is described as follows: Pesticidal test against Laodelphax striatellus (rice seedling spray). To be noted: 144 h, concentration 100 ppm, 3-stage larvae, examined after 6 days, 25° C., read-out: pesticidal rate. Summed up: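 Rice seedlings sprayed with 2.5 ml acetone solution of compound at a predetermined concentration, air-dried, then infested with third-stage Laodelphax striatellus larvae in capped water-containing tubes at 25 °C. Living and dead insects counted after 6 days; ten larvae per group, two replicates.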

The test system of another experiment is Spodoptera litura. The experiment is described as follows: Pesticidal test against Spodoptera litura (cabbage leaf dip). The conditions noted are these: foliar, 144 h, concentration 1 ppm, 2-stage larvae, examined after 6 days, 25° C., read-out: pesticidal rate. Summed up: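 Cabbage leaf pieces dipped 30 seconds in compound solution at a predetermined concentration and air-dried, then offered to second-stage larvae, five per group in two replicates. Held at 25° C. Living and dead larvae counted after 6 days.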

A further experiment has as its system Choristoneura magnanima. As to the kind of experiment: Pesticidal test against Choristoneura magnanima (artificial feed dip). To be noted: 144 h, 2-stage larvae, examined after 6 days, 25° C., read-out: pesticidal rate; for pest or weed control at 10 ppm: concentration 10 ppm; for pest or weed control at 1 ppm: concentration 1 ppm. The method, boiled down:
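Thin artificial feed slices dipped 30 s in compound solution at a set concentration, air-dried, then offered to 2nd-stage larvae held at 25° C. Living and dead larvae counted after 6 days; five larvae per group, two replicates.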

The test system of another experiment is Helicoverpa armigera. As to the kind of experiment: Pesticidal test against Helicoverpa armigera (cabbage leaf disk dip). The conditions noted are these: foliar, 72 h, concentration 1 ppm, 2-stage larvae, examined after 3 days, 25° C., read-out: pesticidal rate. The method, boiled down: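 Cabbage leaf disks were dipped for 30 s in test solution at a set concentration and air-dried. Second-instar larvae were placed one per hole and held at 25 °C, with live and dead counts taken after 3 days. Five larvae per group were tested in two replicates.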

Another experiment relates to Musca domestica. The experiment is described as follows: Pesticidal test against Musca domestica (petri dish dry film). The conditions noted are these: 24 h, concentration 100 ppm, female adults, examined after 1 day, 25° C., read-out: pesticidal rate. Summed up:
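Dry film from 1 ml acetone solution of compound at a predetermined concentration, air-dried in a 9 cm petri dish; female adult flies released and dish capped. Held at 25° C; living and dead counted after 1 day. Five insects per group, two replicates.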

In another experiment the test system is Adoxophyes honmai. The experiment is described as follows: Pesticidal test against Adoxophyes honmai (artificial feed dip). The conditions noted are these: 144 h, 2-stage larvae, examined after 6 days, 25° C., read-out: pesticidal rate; for pest or weed control at 1 ppm: concentration 1 ppm; for pest or weed control at 10 ppm: concentration 10 ppm. The method, boiled down:
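Thin artificial feed slices dipped 30 s in test solution at a predetermined concentration, air-dried, then offered to 2nd-stage larvae. Kept at 25° C; live and dead larvae counted after 6 days. Five larvae per group, two replicates.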

Another experiment deals with Ctenocephalides Felis. As to the kind of experiment: Insecticidal test for Ctenocephalides felis, Test Example 1 (dry film in glass tube, 0.5 ml, Table A4). The conditions noted are these: Ctenocephalides felis, adults, after 24 hours of the exposure, in triplicate, read-out: death rate; for pest or weed control at 1 µg/mL: concentration 1.0 μg/ml. On the procedure: Insecticidal Test for Ctenocephalides Felis
0.5 ml of a solution of acetone, the active ingredient, prepared to the prescribed concentration was added dropwise to a glass tube with a flat bottom (internal diameter: 2.6 cm, bottom area: 5.3 cm^2, height: 12 cm), and the solvent was evaporated at room temperature to form a dry film of the agent on the bottom surface. About 10 adults of Ctenocephalides Felis per glass tube were added, and the adults were contact-exposed to the test compound. After 24 hours of the exposure, the conditions of the adults were examined and classified into “alive” and “dead (including a moribund condition)” to determine the death rate (in triplicate).
As the comparative compounds, the following Compounds (A), (B), and (C) disclosed in WO2009/080203, and fipronil were used.

The next experiment deals with Blattella germanica. The experiment is described as follows: Pesticidal test against Blattella germanica (petri dish dry film). The conditions noted are these: 24 h, concentration 100 ppm, female adults, examined after 1 day, 25° C., read-out: pesticidal rate. The method, boiled down: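 Acetone solution of test compound at a predetermined concentration dried as a film in a 9 cm petri dish; female adult cockroaches released onto it and kept at 25° C. Living and dead counted after 1 day; five insects per group, two replicates.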

Another experiment has as its system Rhipicephalus sanguineus. As to the kind of experiment: Insecticidal test for Rhipicephalus sanguineus (treated glass petri dish, Table A6). To be noted: adults of Rhipicephalus sanguineus, 18 hour exposure, examined after 48 hours, in single. Here is the method:
Insecticidal Test for Rhipicephalus sanguineus
0.5 ml of a solution of acetone, the active ingredient, prepared to the prescribed dose was added dropwise into a glass petri dish with a diameter of 10 cm, and the acetone was evaporated at room temperature. About 10 adults of Rhipicephalus sanguineus per dish were added, and the dish was covered by another glass petri dish that was treated with the active ingredient in the same manner described above. After 18 hour exposure to the test substance, the adults were transferred into a glass petri dish that was not treated with the active ingredient. After 48 hours of the exposure, the conditions of the adults were examined and classified into “alive” and “dead (including a moribund condition)” to determine the death rate (in single).
As the comparative compounds, said Compounds (B), (C), and (D), and the following Compound (F) disclosed in WO2009/080203, and fipronil were used.

As for `O=C(Nc1c(I)cc(C(F)(C(F)(F)F)C(F)(F)F)cc1C(F)(F)F)c1cccc(NC(=O)c2cccnc2Cl)c1` [6-460, 2-chloro-N-(3-(2-iodo-4-(perfluoropropan-2-yl)-6-(trifluoromethyl)phenylcarbamoyl)phenyl)nicotinamide], the pest or weed control at 30 ppm in the experiment on Coptotermes formosanus is at least 70%. The pest or weed control at 1 ppm with Plutella xylostella, with Spodoptera litura, with Helicoverpa armigera and with Adoxophyes honmai was at least 70% in each case. Further, the pest or weed control at 100 ppm in the experiment on Laodelphax striatellus and with Musca domestica was at least 70% in each case. Besides, the pest or weed control at 10 ppm in the experiment on Choristoneura magnanima was at least 70%.
For `O=C(Nc1cccc(C(=O)Nc2c(I)cc(C(F)(C(F)(F)F)C(F)(F)F)cc2I)c1F)c1ccccc1` [6-1260, 3-benzamide-N-(2,6-diiodo-4-(perfluoropropan-2-yl)phenyl)-2-fluorobenzamide], the pest or weed control at 30 ppm with Coptotermes formosanus is at least 70%. The pest or weed control at 1 ppm in the experiment on Plutella xylostella, in the experiment on Spodoptera litura, with Choristoneura magnanima, in the experiment on Helicoverpa armigera and in the experiment with Adoxophyes honmai was at least 70% each time. The pest or weed control at 100 ppm with Laodelphax striatellus and in the experiment with Musca domestica was at least 70% throughout.
Take `O=C(Nc1cccc(C(=O)Nc2c(Br)cc(C(F)(C(F)(F)F)C(F)(F)C(F)(F)F)cc2C(F)(F)F)c1F)c1ccccc1` (centres unmarked) [6-1652]: the pest or weed control at 30 ppm in the experiment with Coptotermes formosanus is at least 70%. In addition, the pest or weed control at 1 ppm in the experiment with Plutella xylostella, in the experiment with Spodoptera litura, in the experiment on Choristoneura magnanima, in the experiment with Helicoverpa armigera and in the experiment on Adoxophyes honmai was at least 70% in each case. In addition, the pest or weed control at 100 ppm in the experiment on Laodelphax striatellus and in the experiment with Musca domestica was at least 70% in each case.
Turning to `O=C(Nc1cccc(C(=O)Nc2c(I)cc(C(F)(C(F)(F)F)C(F)(F)F)cc2C(F)(F)F)c1F)c1ccc(F)cc1` [6-1733, 2-fluoro-3-(4-fluorobenzamide)-N-(2-iodo-4-(heptafluoropropan-2-yl)-6-(trifluoromethyl)phenyl)benzamide], the pest or weed control at 1 ppm in the experiment on Plutella xylostella, in the experiment on Spodoptera litura, in the experiment with Choristoneura magnanima, in the experiment with Helicoverpa armigera and with Adoxophyes honmai was at least 70% throughout. Further, the pest or weed control at 100 ppm with Laodelphax striatellus, with Blattella germanica and in the experiment on Musca domestica was at least 70% in each case. Also, in the experiment on Ctenocephalides Felis (concentration 0.1 μg/ml), the pest or weed control at 0.1 µg/mL was found to be 70%.
For the molecule `CN(C(=O)c1ccccc1)c1cccc(C(=O)Nc2c(Br)cc(C(F)(C(F)(F)F)C(F)(F)F)cc2C(F)(F)F)c1` [7-268], in the experiment with Coptotermes formosanus, the pest or weed control at 30 ppm was at least 70%. The pest or weed control at 1 ppm with Plutella xylostella and in the experiment with Spodoptera litura was at least 70% throughout. Besides, the pest or weed control at 100 ppm in the experiment with Laodelphax striatellus, in the experiment on Blattella germanica and in the experiment on Musca domestica was at least 70% in each case.
Regarding `CN(C(=O)c1ccccc1)c1cccc(C(=O)Nc2c(I)cc(C(F)(C(F)(F)F)C(F)(F)F)cc2C(F)(F)F)c1` [7-424], the pest or weed control at 30 ppm in the experiment with Coptotermes formosanus was at least 70%. For the same molecule, the pest or weed control at 1 ppm in the experiment with Plutella xylostella, in the experiment with Spodoptera litura and in the experiment on Helicoverpa armigera was at least 70% each time. The pest or weed control at 100 ppm in the experiment on Laodelphax striatellus, in the experiment on Blattella germanica and with Musca domestica was at least 70% each time. In addition, the pest or weed control at 10 ppm in the experiment with Choristoneura magnanima and with Adoxophyes honmai was at least 70% each time.
As for `CN(C(=O)c1ccc(F)cc1)c1cccc(C(=O)Nc2c(Br)cc(C(F)(C(F)(F)F)C(F)(F)F)cc2C(F)(F)F)c1F` [7-1577], in the experiment on Coptotermes formosanus, the pest or weed control at 30 ppm was at least 70%. The pest or weed control at 1 ppm in the experiment on Plutella xylostella, in the experiment on Spodoptera litura, in the experiment with Choristoneura magnanima and in the experiment on Helicoverpa armigera was at least 70% each time. The pest or weed control at 100 ppm in the experiment with Laodelphax striatellus, in the experiment on Blattella germanica and with Musca domestica was at least 70% each time. Also, the pest or weed control at 10 ppm in the experiment on Adoxophyes honmai was at least 70%.
Consider `CN(C(=O)c1ccccc1)c1cccc(C(=O)Nc2c(I)cc(C(F)(C(F)(F)F)C(F)(F)F)cc2C(F)(F)F)c1F` [7-1730], for which the pest or weed control at 30 ppm with Coptotermes formosanus was at least 70%. The pest or weed control at 1 ppm in the experiment on Plutella xylostella, in the experiment on Spodoptera litura, with Choristoneura magnanima, in the experiment with Helicoverpa armigera and in the experiment with Adoxophyes honmai was at least 70% each time. Besides, the pest or weed control at 100 ppm in the experiment on Laodelphax striatellus and with Musca domestica was at least 70% throughout.
Turning to `Cc1cc(C(F)(C(F)(F)F)C(F)(F)F)cc(C)c1NC(=O)c1cccc(NC(=O)c2cccnc2F)c1` [compound (A), reference compound], the pest or weed control at 1 µg/mL in the experiment with Ctenocephalides Felis turned out to be 0%.
Take `O=C(Nc1cccc(C(=O)Nc2c(I)cc(C(F)(C(F)(F)F)C(F)(F)F)cc2I)c1)c1ccccc1` [compound (B)]: the death rate worked out at 0.0% with Rhipicephalus sanguineus (0.673 mg/m^2), 20.0% with Rhipicephalus sanguineus (2.69 mg/m^2) and 50.0% with Rhipicephalus sanguineus (10.8 mg/m^2). The pest or weed control at 1 µg/mL in the experiment with Ctenocephalides Felis was determined as 3.2%.
As for `O=C(Nc1cccc(C(=O)Nc2c(I)cc(C(F)(F)F)cc2C(F)(F)F)c1)c1ccccc1` [compound (C)], the death rate in the experiment on Rhipicephalus sanguineus (0.673 mg/m^2) was found to be 0.0%; in the experiment with Rhipicephalus sanguineus (2.69 mg/m^2), 11.1%; in the experiment on Rhipicephalus sanguineus (10.8 mg/m^2), 10.0%. Besides, the pest or weed control at 1 µg/mL in the experiment on Ctenocephalides Felis was 0%.
With `CCc1cc(C(F)(C(F)(F)F)C(F)(F)F)cc(C)c1NC(=O)c1cccc(NC(=O)C2CC2)c1` [compound (F)], the death rate with Rhipicephalus sanguineus (0.673 mg/m^2), with Rhipicephalus sanguineus (2.69 mg/m^2) and in the experiment on Rhipicephalus sanguineus (10.8 mg/m^2) was 0.0% in each case.
